A short description of series [1]: Quenching activity of compound in pH 7.4 PBS assessed as 4-HNE consumption at 2 mmol/L after 1 hr by HPLC analysis. In kind it is functional.
The nature of series [2]: Quenching activity of compound in pH 7.4 PBS assessed as 4-HNE consumption at 2 mmol/L after 30 mins by HPLC analysis relative to control. In kind it is functional.
In series [3] the test system is Meriones unguiculatus. The experiment in a line: Neuroprotective activity against BCCO-induced transient cerebral ischemia in mongolian gerbil hippocampal CA1 region assessed as increase in Hsp70 activity at 20 mg/kg, ip administered 20 mins prior to BCCO treatment measured after 24 hrs by immunostaining analysis. In kind it is functional, organism-based.
Series [4] relates to PC-12. The experiment in a line: Neuroprotective activity against 4-HNE-induced toxicity in rat PC12 cells preincubated for 30 mins followed by compound wash and 4-HNE addition measured after 24 hrs by MTT assay. In kind it is functional, cell-based. (In general: Formazan colour is commonly taken as a measure of viable cells.)
Series [5] has as its system PC-12. Briefly: Cytotoxicity against rat PC12 cells at 1 to 50 mM after 30 mins by MTT assay. Particulars: pc-12, 0.5 h, 50000 µM. In kind it is cell-based.
Series [6] has as its system Meriones unguiculatus. Briefly: Neuroprotective activity against BCCO-induced transient cerebral ischemia in mongolian gerbil hippocampal CA1 region assessed as increase in viable neurons at 100 mg/kg, ip administered immediately after BCCO treatment and measured after 7 days by hematoxylin and eosin staining-based light microscopic analysis relative to control. In kind it is functional.

The test system of series [7] is PC-12. Briefly: Neuroprotective activity against 4-HNE-induced toxicity in rat PC12 cells at 30 mM preincubated for 30 mins followed by compound wash and 4-HNE addition measured after 24 hrs by MTT assay relative to control. In kind it is functional.
Series [8] deals with Meriones unguiculatus. Briefly: Neuroprotective activity against BCCO-induced transient cerebral ischemia in mongolian gerbil hippocampal CA1 region assessed as increase in viable neurons at 20 mg/kg, ip administered 20 mins prior to BCCO treatment and measured after 7 days by hematoxylin and eosin staining-based light microscopic analysis relative to control. In kind it is functional.

Series [9] has as its system Meriones unguiculatus. The experiment in a line: Neuroprotective activity against BCCO-induced transient cerebral ischemia in mongolian gerbil hippocampal CA1 region assessed as increase in viable neurons at 100 mg/kg, ip administered immediately after BCCO treatment and measured after 7 days by hematoxylin and eosin staining-based light microscopic analysis. In kind it is functional, organism-based.

The source made the active and inactive calls. No cut-off for these calls is given here.

Consider `CC(=O)NCCC(=O)N[C@@H](Cc1c[nH]cn1)C(=O)NNC(C)=O`, for which the outcome in series [1] was Active.

For the molecule `CC(=O)NCCC(=O)N[C@@H](Cc1c[nH]cn1)C(=O)NN`, the result in series [1] was Active.

Regarding `NCCC(=O)N[C@@H](Cc1c[nH]cn1)C(=O)O`, in [1], the result was Active. For the same molecule, in series [2], the Activity was found to be 20%.

In the case of `CC(=O)NNC(=O)[C@H](Cc1c[nH]cn1)NC(=O)CCN`, the outcome in series [1] was Active.

In the case of `NCCC(=O)N[C@@H](Cc1c[nH]cn1)C(=O)NN`, the outcome (with Meriones unguiculatus [3]; in series [1]) was Active. Also, the Activity entry with PC-12 [4] is “Dose-dependent effect”; with PC-12 [5] it was “Non-Toxic”; in the series with Meriones unguiculatus [6] it was 40%; in the series with PC-12 [7], 100%; in series [2] it was 90%; with Meriones unguiculatus [8] it was over 60%.

For the molecule `NNC(=O)[C@@H](N)Cc1c[nH]cn1`, in [1], the result was Active. Further, in the series on Meriones unguiculatus [9], the result was inactive. The Activity in [2] came out at 70%.
